Measured values published in the NIST ThermoML archive (doi:10.1016/j.jct.2015.01.004).
Values joined by “and” are separate entries in the source; they are usually repeats but may differ in a detail not shown here. Identical values can stand only once. ± gives the expanded uncertainty stated by the source.

Test: molar heat capacity at constant pressure; xn = mol fraction of the nth substance listed
Settings: 100 kPa

[Si] [silicon] + [Li]
Settings	molar heat capacity at constant pressure
12.56 K, Crystal of intercomponent compound 2, relaxation calorimeter, x2 = 0.804	0.0482 ± 0.0038 J/K/mol and 0.0474 ± 0.0037 J/K/mol
13.23 K, Crystal of intercomponent compound 1, relaxation calorimetry, x2 = 0.81	0.0671 ± 0.0053 J/K/mol
13.23 K, Crystal of intercomponent compound 2, relaxation calorimeter, x2 = 0.804	0.0553 ± 0.0043 J/K/mol
13.24 K, Crystal of intercomponent compound 2, relaxation calorimeter, x2 = 0.804	0.0547 ± 0.0043 J/K/mol
13.94 K, Crystal of intercomponent compound 1, relaxation calorimetry, x2 = 0.81	0.0741 ± 0.0058 J/K/mol
13.94 K, Crystal of intercomponent compound 2, relaxation calorimeter, x2 = 0.804	0.0639 ± 0.005 J/K/mol
13.95 K, Crystal of intercomponent compound 2, relaxation calorimeter, x2 = 0.804	0.0628 ± 0.0049 J/K/mol
14.69 K, Crystal of intercomponent compound 1, relaxation calorimetry, x2 = 0.81	0.083 ± 0.0065 J/K/mol
14.69 K, Crystal of intercomponent compound 2, relaxation calorimeter, x2 = 0.804	0.0753 ± 0.0059 J/K/mol and 0.0743 ± 0.0058 J/K/mol
15 K, Crystal of intercomponent compound 1, relaxation calorimetry + DSC, x2 = 0.81	0.0895 ± 0.007 J/K/mol
15 K, Crystal of intercomponent compound 2, relaxation calorimetry + DSC, x2 = 0.804	0.0803 ± 0.007 J/K/mol
15.47 K, Crystal of intercomponent compound 1, relaxation calorimetry, x2 = 0.81	0.094 ± 0.0074 J/K/mol
15.47 K, Crystal of intercomponent compound 2, relaxation calorimeter, x2 = 0.804	0.0889 ± 0.007 J/K/mol
15.48 K, Crystal of intercomponent compound 2, relaxation calorimeter, x2 = 0.804	0.0879 ± 0.0069 J/K/mol
16.3 K, Crystal of intercomponent compound 1, relaxation calorimetry, x2 = 0.81	0.1071 ± 0.0084 J/K/mol
16.3 K, Crystal of intercomponent compound 2, relaxation calorimeter, x2 = 0.804	0.1049 ± 0.0082 J/K/mol
16.31 K, Crystal of intercomponent compound 2, relaxation calorimeter, x2 = 0.804	0.1039 ± 0.0082 J/K/mol
17.17 K, Crystal of intercomponent compound 1, relaxation calorimetry, x2 = 0.81	0.1224 ± 0.0096 J/K/mol
17.18 K, Crystal of intercomponent compound 2, relaxation calorimeter, x2 = 0.804	0.1233 ± 0.0097 J/K/mol and 0.1231 ± 0.0097 J/K/mol
18.09 K, Crystal of intercomponent compound 1, relaxation calorimetry, x2 = 0.81	0.1403 ± 0.011 J/K/mol
18.09 K, Crystal of intercomponent compound 2, relaxation calorimeter, x2 = 0.804	0.1454 ± 0.011 J/K/mol
18.1 K, Crystal of intercomponent compound 2, relaxation calorimeter, x2 = 0.804	0.1461 ± 0.011 J/K/mol
19.06 K, Crystal of intercomponent compound 1, relaxation calorimetry, x2 = 0.81	0.1618 ± 0.013 J/K/mol
19.07 K, Crystal of intercomponent compound 2, relaxation calorimeter, x2 = 0.804	0.1725 ± 0.013 J/K/mol and 0.1731 ± 0.014 J/K/mol
20 K, Crystal of intercomponent compound 1, relaxation calorimetry + DSC, x2 = 0.81	0.184 ± 0.014 J/K/mol
20 K, Crystal of intercomponent compound 2, relaxation calorimetry + DSC, x2 = 0.804	0.201 ± 0.018 J/K/mol
20.09 K, Crystal of intercomponent compound 1, relaxation calorimetry, x2 = 0.81	0.187 ± 0.008 J/K/mol
20.09 K, Crystal of intercomponent compound 2, relaxation calorimeter, x2 = 0.804	0.205 ± 0.008 J/K/mol
20.1 K, Crystal of intercomponent compound 2, relaxation calorimeter, x2 = 0.804	0.203 ± 0.008 J/K/mol
21.16 K, Crystal of intercomponent compound 1, relaxation calorimetry, x2 = 0.81	0.219 ± 0.009 J/K/mol
21.16 K, Crystal of intercomponent compound 2, relaxation calorimeter, x2 = 0.804	0.24 ± 0.01 J/K/mol
21.17 K, Crystal of intercomponent compound 2, relaxation calorimeter, x2 = 0.804	0.242 ± 0.01 J/K/mol
22.28 K, Crystal of intercomponent compound 1, relaxation calorimetry, x2 = 0.81	0.255 ± 0.01 J/K/mol
22.3 K, Crystal of intercomponent compound 2, relaxation calorimeter, x2 = 0.804	0.283 ± 0.012 J/K/mol and 0.286 ± 0.012 J/K/mol
23.49 K, Crystal of intercomponent compound 2, relaxation calorimeter, x2 = 0.804	0.333 ± 0.014 J/K/mol and 0.337 ± 0.014 J/K/mol
23.51 K, Crystal of intercomponent compound 1, relaxation calorimetry, x2 = 0.81	0.297 ± 0.012 J/K/mol
24.74 K, Crystal of intercomponent compound 1, relaxation calorimetry, x2 = 0.81	0.331 ± 0.014 J/K/mol
24.75 K, Crystal of intercomponent compound 2, relaxation calorimeter, x2 = 0.804	0.391 ± 0.016 J/K/mol and 0.396 ± 0.016 J/K/mol
25 K, Crystal of intercomponent compound 1, relaxation calorimetry + DSC, x2 = 0.81	0.347 ± 0.014 J/K/mol
25 K, Crystal of intercomponent compound 2, relaxation calorimetry + DSC, x2 = 0.804	0.403 ± 0.016 J/K/mol
26.07 K, Crystal of intercomponent compound 2, relaxation calorimeter, x2 = 0.804	0.458 ± 0.019 J/K/mol and 0.454 ± 0.019 J/K/mol
26.08 K, Crystal of intercomponent compound 1, relaxation calorimetry, x2 = 0.81	0.39 ± 0.016 J/K/mol
27.47 K, Crystal of intercomponent compound 2, relaxation calorimeter, x2 = 0.804	0.534 ± 0.022 J/K/mol
27.48 K, Crystal of intercomponent compound 1, relaxation calorimetry, x2 = 0.81	0.457 ± 0.019 J/K/mol
27.48 K, Crystal of intercomponent compound 2, relaxation calorimeter, x2 = 0.804	0.531 ± 0.022 J/K/mol
28.94 K, Crystal of intercomponent compound 2, relaxation calorimeter, x2 = 0.804	0.623 ± 0.025 J/K/mol
28.95 K, Crystal of intercomponent compound 1, relaxation calorimetry, x2 = 0.81	0.534 ± 0.022 J/K/mol
28.95 K, Crystal of intercomponent compound 2, relaxation calorimeter, x2 = 0.804	0.619 ± 0.025 J/K/mol
30 K, Crystal of intercomponent compound 1, relaxation calorimetry + DSC, x2 = 0.81	0.596 ± 0.024 J/K/mol
30 K, Crystal of intercomponent compound 2, relaxation calorimetry + DSC, x2 = 0.804	0.689 ± 0.028 J/K/mol
30.48 K, Crystal of intercomponent compound 2, relaxation calorimeter, x2 = 0.804	0.723 ± 0.03 J/K/mol
30.49 K, Crystal of intercomponent compound 1, relaxation calorimetry, x2 = 0.81	0.625 ± 0.026 J/K/mol
30.5 K, Crystal of intercomponent compound 2, relaxation calorimeter, x2 = 0.804	0.718 ± 0.029 J/K/mol
32.11 K, Crystal of intercomponent compound 2, relaxation calorimeter, x2 = 0.804	0.835 ± 0.034 J/K/mol
32.12 K, Crystal of intercomponent compound 1, relaxation calorimetry, x2 = 0.81	0.728 ± 0.03 J/K/mol
32.12 K, Crystal of intercomponent compound 2, relaxation calorimeter, x2 = 0.804	0.832 ± 0.034 J/K/mol
33.83 K, Crystal of intercomponent compound 2, relaxation calorimeter, x2 = 0.804	0.964 ± 0.039 J/K/mol
33.84 K, Crystal of intercomponent compound 1, relaxation calorimetry, x2 = 0.81	0.848 ± 0.035 J/K/mol
33.84 K, Crystal of intercomponent compound 2, relaxation calorimeter, x2 = 0.804	0.961 ± 0.039 J/K/mol
35 K, Crystal of intercomponent compound 1, relaxation calorimetry + DSC, x2 = 0.81	0.934 ± 0.038 J/K/mol
35 K, Crystal of intercomponent compound 2, relaxation calorimetry + DSC, x2 = 0.804	1.056 ± 0.043 J/K/mol
35.64 K, Crystal of intercomponent compound 2, relaxation calorimeter, x2 = 0.804	1.113 ± 0.045 J/K/mol
35.65 K, Crystal of intercomponent compound 2, relaxation calorimeter, x2 = 0.804	1.109 ± 0.045 J/K/mol
35.66 K, Crystal of intercomponent compound 1, relaxation calorimetry, x2 = 0.81	0.987 ± 0.04 J/K/mol
37.54 K, Crystal of intercomponent compound 2, relaxation calorimeter, x2 = 0.804	1.278 ± 0.052 J/K/mol
37.56 K, Crystal of intercomponent compound 1, relaxation calorimetry, x2 = 0.81	1.143 ± 0.047 J/K/mol
37.56 K, Crystal of intercomponent compound 2, relaxation calorimeter, x2 = 0.804	1.272 ± 0.052 J/K/mol
39.55 K, Crystal of intercomponent compound 2, relaxation calorimeter, x2 = 0.804	1.458 ± 0.059 J/K/mol
39.56 K, Crystal of intercomponent compound 1, relaxation calorimetry, x2 = 0.81	1.315 ± 0.054 J/K/mol
39.57 K, Crystal of intercomponent compound 2, relaxation calorimeter, x2 = 0.804	1.455 ± 0.059 J/K/mol
40 K, Crystal of intercomponent compound 1, relaxation calorimetry + DSC, x2 = 0.81	1.35 ± 0.06 J/K/mol
40 K, Crystal of intercomponent compound 2, relaxation calorimetry + DSC, x2 = 0.804	1.5 ± 0.06 J/K/mol
41.66 K, Crystal of intercomponent compound 2, relaxation calorimeter, x2 = 0.804	1.664 ± 0.068 J/K/mol
41.67 K, Crystal of intercomponent compound 1, relaxation calorimetry, x2 = 0.81	1.513 ± 0.062 J/K/mol
41.68 K, Crystal of intercomponent compound 2, relaxation calorimeter, x2 = 0.804	1.659 ± 0.068 J/K/mol
43.88 K, Crystal of intercomponent compound 1, relaxation calorimetry, x2 = 0.81	1.731 ± 0.07 J/K/mol
43.89 K, Crystal of intercomponent compound 2, relaxation calorimeter, x2 = 0.804	1.888 ± 0.077 J/K/mol
43.9 K, Crystal of intercomponent compound 2, relaxation calorimeter, x2 = 0.804	1.888 ± 0.077 J/K/mol
45 K, Crystal of intercomponent compound 1, relaxation calorimetry + DSC, x2 = 0.81	1.85 ± 0.08 J/K/mol
45 K, Crystal of intercomponent compound 2, relaxation calorimetry + DSC, x2 = 0.804	2.01 ± 0.08 J/K/mol
46.22 K, Crystal of intercomponent compound 1, relaxation calorimetry, x2 = 0.81	1.98 ± 0.081 J/K/mol
